Source: PubChem BioAssay AID812 (SRMLSC, 2007)
The source made the active and inactive calls. No rule for the calls is given here.

The molecules below were run on Saccharomyces cerevisiae lifespan extension, no nicotinamide (assay: yeast lifespan extension without nicotinamide, confirmation, yeast lifespan extension project, S. cerevisiae (AID 812);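 also: growth read as optical density after 42 hours of incubation at 30C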).

Structure (SMILES)	EC50
COC(=O)C1=C(C(=O)OC)SC(=C2C(=S)C(C)(C)N(C(=O)C(C)C)c3ccccc32)S1	> 40 µM (inactive)
COc1ccc(CCN2C(=O)C(O)=C(C(=O)c3ccco3)C2c2cccs2)cc1OC (stereo not given)	> 40 µM (inactive)
CCC1C/C(=C\c2cccnc2)C(=O)/C(=C/c2cccnc2)C1 (stereo not given)	> 40 µM (inactive)
CCOc1ccc(/C=C/C(=O)c2c(O)c3ccccc3oc2=O)cc1	> 40 µM (inactive)
CN(c1ccccc1)c1nc2ccsc2c(=O)s1	> 40 µM (inactive)
CCOC(=O)Cc1csc(NC(=O)c2c(O)c3ccccc3n(CC(C)C)c2=O)n1	> 40 µM (inactive)
Cc1ccc(NC(=O)Nc2nc(-c3ccc(C)s3)cs2)cc1	> 40 µM (inactive)
CN(C)C=C1C(=O)N(C2CCCCC2)C(=O)N(C2CCCCC2)C1=O	> 40 µM (inactive)
CCc1ccc2nc(N3C(=O)C(O)=C(C(=O)c4ccco4)C3c3cccs3)sc2c1 (stereo not given)	> 40 µM (inactive)
Cc1ccc(N2NC(=O)/C(=C\c3cc4c(cc3[N+](=O)[O-])OCO4)C2=O)cc1C	> 40 µM (inactive)
CCOc1ccc2nc(NCCNC(=O)Nc3ccccc3)c(C#N)cc2c1	> 40 µM (inactive)
O=C(NCC1CCCO1)c1c(O)c2ccccc2[nH]c1=O (stereo not given)	> 40 µM (inactive)
CCOC(=O)CSC1=NC(=O)/C(=C/c2ccc(OC)cc2)S1	> 40 µM (inactive)
Cc1ccc(S(=O)(=O)N[C@@H](Cc2ccccc2)C(=O)CCl)cc1	> 40 µM (inactive)
Cc1cc(NS(=O)(=O)c2ccc(CC(C)C)cc2)no1	> 40 µM (inactive)
C=CCn1c(-c2ccc(OC)cc2)csc1=Nc1c(C)n(C)n(-c2ccccc2)c1=O	> 40 µM (inactive)
CN(C)/C=C(/C(=O)c1ccc(Cl)cc1Cl)S(=O)(=O)c1ccc(Cl)cc1	> 40 µM (inactive)
O=C1c2ccccc2C(=O)N1OCc1ccccc1	> 40 µM (inactive)
COCCOC(=O)/C(=C/c1ccc(OC(=O)c2ccccc2)cc1)C(C)=O	> 40 µM (inactive)
O=C(Nc1nccs1)c1ccc2c(=O)n3c(nc2c1)CCCCC3	> 40 µM (inactive)
CC1=CS(=O)(=O)CC1Sc1nc2ccccc2[nH]1 (stereo not given)	> 40 µM (inactive)
Cc1ccc(/C(O)=C2\C(=O)C(=O)N(c3cc(C)on3)C2c2cccc(Cl)c2)cc1 (stereo not given)	> 40 µM (inactive)
Cn1c(=O)c(=O)n(C)c2cc(S(=O)(=O)N3CCN(Cc4ccccc4)CC3)ccc21	> 40 µM (inactive)
C=CCn1c(C)cc(C(=O)CSc2nc3ccccc3c(=O)[nH]2)c1C	> 40 µM (inactive)
CCCCn1c(NS(=O)(=O)c2ccc(C)cc2)c(C(=O)OCC)c2nc3ccccc3nc21	> 40 µM (inactive)

Structure (SMILES)	EC50
CN=C(SCc1cc2c(cc1Cl)OCO2)c1c(O)n(C)c(=O)n(C)c1=O	> 40 µM (inactive)
Cn1nnnc1SCCNCC#Cc1ccccc1	> 40 µM (inactive)
CN(C)C1(c2nnnn2CCOC(=O)Nc2ccc(Cl)cc2)CCCCC1	> 40 µM (inactive)
O=S(=O)(Nc1nc2ccccc2nc1Cl)c1ccc2ccccc2c1	> 40 µM (inactive)
O=C(/C=C(\O)c1ccc(Cl)cc1)C(=O)NNC(=O)C(O)(c1ccccc1)c1ccccc1	> 40 µM (inactive)
CC(C)n1c(=O)c2c(O)cc(=O)oc2c2ccccc21	> 40 µM (inactive)
O=[N+]([O-])c1cc(S(=O)(=O)N2CCCCCC2)ccc1F	> 40 µM (inactive)
O=C(c1ccccc1)c1nc2ccccc2[nH]c1=O	> 40 µM (inactive)
CCOc1ccc(OCC(=O)c2c(O)c3ccccc3oc2=O)cc1	> 40 µM (inactive)
O=Cc1cccn1-c1sc2c(c1C(=O)O)CCCC2	> 40 µM (inactive)
COc1ccc(/C(O)=C/C(=O)C(=O)Nc2c(C)n(C)n(-c3ccccc3)c2=O)cc1	> 40 µM (inactive)
CC(=O)N1CCN(CCN=CC2=C(O)CC(c3cccs3)CC2=O)CC1 (stereo not given)	> 40 µM (inactive)
CCn1c(=O)c2c(O)cc(=O)oc2c2ccccc21	> 40 µM (inactive)
O=C1C(C2=C(O)c3ccccc3C2=O)=Nc2ccccc21	> 40 µM (inactive)
CC1=CN2C(=N)/C(=C/c3ccc([N+](=O)[O-])o3)C(=O)N=C2S1	> 40 µM (inactive)
CCCC(=Nc1ccccc1OC)C1=C(O)CC(c2ccccc2)CC1=O (stereo not given)	> 40 µM (inactive)
Cc1[nH]n(-c2ccccc2)c(=O)c1N=Nc1nccs1	> 40 µM (inactive)
Cc1cc(C)n2cc(CSc3nnc(N)s3)nc2n1	> 40 µM (inactive)
COC(=O)C(=O)/C=C(\O)c1ccc(C)cc1	> 40 µM (inactive)
C=C(C)CN(CC)C(=O)COc1ccc(S(=O)(=O)Nc2ccc(OC)cc2)cc1	> 40 µM (inactive)
O=C1CC(c2ccccc2)CC(O)=C1C=NCCN1CCN(C(=O)Cc2ccccc2)CC1 (stereo not given)	> 40 µM (inactive)
Cc1ccc(C(C2=C(O)CC(C)(C)CC2=O)C2C(=O)CC(C)(C)CC2=O)o1 (stereo not given)	> 40 µM (inactive)
O=C1CC(c2ccccc2)CC(O)=C1C=NCCN1CCOCC1 (stereo not given)	> 40 µM (inactive)
CCn1cc(C(=O)O)c(=O)c2ccc(C)nc21	> 40 µM (inactive)
CCOC(=O)c1ccc2c(c1)n(CCO)c(C)[n+]2CC	> 40 µM (inactive)

Structure (SMILES)	EC50
O=S(=O)(Nc1cccc2c1CCCC2)c1ccc(Cl)cc1	> 40 µM (inactive)
O=C(/C=C/c1ccccc1)Nc1ncn[nH]1	> 40 µM (inactive)
CCSc1nnc(NC(=O)CSc2nc(C)cc(C)n2)s1	> 40 µM (inactive)
Cc1ccsc1C(=O)Nc1nnc(-c2ccco2)o1	> 40 µM (inactive)
CC1=NN(c2ccc(C(F)(F)F)cn2)C(=O)C1	> 40 µM (inactive)
COc1ccc(-c2noc(CSc3nnc(-c4ccncc4)n3-c3ccc(F)cc3)n2)cc1OC	> 40 µM (inactive)
CS(=O)(=O)c1nc(-c2cccs2)cc(C(F)(F)F)n1	> 40 µM (inactive)
CCn1c(/N=C/c2ccccc2NS(=O)(=O)c2ccc(C)cc2)nc2ccccc21	> 40 µM (inactive)
CC(C)(C)C(=O)Cn1c(=N)n(Cc2ccccc2)c2ccccc21	> 40 µM (inactive)
O=C(c1cnn2c(C(F)F)cc(C3CC3)nc12)N1CCCC1	> 40 µM (inactive)
CCCNC(=O)CCC(NS(=O)(=O)c1ccc(C)cc1)C(=O)NCCC (stereo not given)	> 40 µM (inactive)
CC(=C1C(=O)c2ccccc2C1=O)N1CCN(C/C=C/c2ccccc2)CC1	> 40 µM (inactive)
O=[N+]([O-])c1cc2oc3c(c2c(C=NCc2ccncc2)c1O)CCCC3	> 40 µM (inactive)
Cc1ccccc1OC(=O)n1c(=S)oc2cc(Cl)ccc21	> 40 µM (inactive)
Cc1cc(C)c(NC(=O)/C(=C/c2ccccc2)c2ccccc2)c(C)c1	> 40 µM (inactive)
CCCCC(=Nc1ccccc1OC)C1=C(O)CC(c2ccccc2)CC1=O (stereo not given)	> 40 µM (inactive)
O=C(Cn1nc(Cl)nc1Cl)c1cc2ccccc2oc1=O	> 40 µM (inactive)
O=C1ON=C(c2ccccc2)/C1=C/c1ccc(-c2ccccc2[N+](=O)[O-])o1	> 40 µM (inactive)
CCOC(=O)c1cnc(-c2ccccc2)nc1Oc1ccc(Cl)cc1	> 40 µM (inactive)
COCCCNC(CC(=O)Nc1ccc(OC)cc1OC)C(=O)O (stereo not given)	> 40 µM (inactive)
COC(=O)/C(=C/c1cn(C)c2ccccc12)[N+](=O)[O-]	> 40 µM (inactive)
O=C1C=CCC(/C=C/c2ccccc2)O1 (stereo not given)	> 40 µM (inactive)
CCc1cc2c(=O)c(Oc3ccccc3)c(C)oc2cc1O	> 40 µM (inactive)
O=C(O)c1ccc(O)c(N2C(=O)Nc3ccccc3N2O)c1	> 40 µM (inactive)
COc1cc(OC)cc(-c2nc3ccccc3c(=O)n2OC(=O)c2ccccc2C)c1	> 40 µM (inactive)

Structure (SMILES)	EC50
Cc1cc2c(c(=O)n1CCc1ccccc1)C(c1ccco1)C(C#N)=C(N)O2 (stereo not given)	> 40 µM (inactive)
CC[n+]1ccc(C[n+]2ccccc2)c2ccccc21	> 40 µM (inactive)
O=c1c(Cl)c(NCCCO)cnn1-c1nc2ccccc2[nH]1	> 40 µM (inactive)
CCc1ccc(CC2S/C(=C(\C#N)C(C)=O)NC2=O)cc1 (stereo not given)	> 40 µM (inactive)
Cc1ccc(C(=O)/C=C\C(=O)c2ccc(C)cc2)cc1	> 40 µM (inactive)
Cc1nn(-c2c(Cl)cc(Cl)cc2Cl)c(=O)c2ccccc12	> 40 µM (inactive)
C/C(=N\NC(=O)c1cccnc1)c1c(O)cc(C)oc1=O	> 40 µM (inactive)
CC(C)n1c(-c2ccccc2F)n[nH]c1=S	> 40 µM (inactive)
CC(C)(C)OC(=O)[C@H]1[C@H](c2ccc([N+](=O)[O-])cc2)C2(C(=O)c3ccccc3C2=O)C2c3ccccc3C=NN21 (stereo not given in full)	> 40 µM (inactive)
CCN(CC)Cc1c(O)c(Cl)cc2c(C)c(C)c(=O)oc12	> 40 µM (inactive)
O=C(N/N=C/c1ccccc1)c1c(O)c2ccccc2[nH]c1=O	> 40 µM (inactive)
COc1ccc(C2CC23N=C(c2ccccc2)OC3=O)cc1 (stereo not given)	> 40 µM (inactive)
CC1(C)Cc2ccccc2-c2nnc(SCC(=O)Nc3ccc4c(c3)OCO4)n21	> 40 µM (inactive)
CC1CCc2cc(F)cc3c(O)c(C(=O)NCc4ccco4)c(=O)n1c23 (stereo not given)	> 40 µM (inactive)
Fc1cccc2sc(Nc3nnc(-c4ccccc4)o3)nc12	> 40 µM (inactive)
c1ccc(-c2c(-c3ccccc3)n(Cc3ccco3)c3ncnc(NCCCn4ccnc4)c23)cc1	> 40 µM (inactive)
C=CCN(CC=C)S(=O)(=O)c1ccc2nc(NC(=O)C(C)C)sc2c1	> 40 µM (inactive)
CCCc1cc(=O)oc2cc(C)c(CN3CCCC3)c(O)c12	> 40 µM (inactive)
N#Cc1c(-c2ccccc2)c(-c2ccccc2)nn(CC(=O)NNC(=O)Nc2ccccc2)c1=O	> 40 µM (inactive)
O=C(NC(=S)NNC(=O)c1ccccc1O)c1ccco1	> 40 µM (inactive)
Oc1ccc2ccccc2c1C=Nc1ccccc1-c1nc2ccccc2[nH]1	> 40 µM (inactive)
CC(c1ccccc1)N1CCn2c(nc3cc(NC(=O)c4cccs4)ccc32)C1 (stereo not given)	> 40 µM (inactive)
Cc1cccc(OC(=O)n2c(=S)oc3cc(Cl)ccc32)c1	> 40 µM (inactive)
Cc1cccc(N2C(=O)/C(=C\c3ccc(OC(F)F)cc3)c3ccccc3C2=O)c1	> 40 µM (inactive)
COC(=O)c1sc2ncn(-n3c(C)ccc3C)c(=O)c2c1C	> 40 µM (inactive)
